The values below are quoted from earlier work in US20020155136A1, “MEDICINE CONTAINING YOHIMBINE AND ARGININE FOR TREATING ERECTILE DYSFUNCTION” (priority 1997, published 2002).

For one data set, the system named is erectile dysfunction. To be noted: 2800 mg per day; Zorgniotti and Lizza 1994.
Data set [1] has as its system impotence of psychogenic origin.

Take `N=C(N)NCCC[C@H](N)C(=O)O` [L-arginine]: the “favourable effect on erectile dysfunction, proportion of cases” value in the data set on erectile dysfunction was “approximately 40 % of cases”. As to `COC(=O)[C@@H]1[C@H]2C[C@H]3c4[nH]c5ccccc5c4CCN3C[C@@H]2CC[C@@H]1O` [yohimbine], in data set [1] (for relatively large doses, The Medical Letter 1995), the side effects observed entry was “vertigo, anxiety, nervousness, headaches, insomnia and an increase in arterial pressure”. Also, the “improvements, proportion of cases” value in data set [1] (impotence of psychogenic origin, published studies, results controversial) is reported as 35 to 45 % of cases.
